Like-named read-outs stand apart in the source and are kept apart here. Starred links: 1 amine or outer side, 2 acyl side, 3 side chain; linkers in the order of their positions; H or OH if unused. Positions of bridges follow the written chain, without caps; N, C: chain ends. Non-standard residues stand in square brackets, D forms with d. Residues, ends and D or L forms follow the SMILES beside them. Groups on a side chain read outwards from the residue. ξ: configuration not given here. *: point of attachment. NH(Fluorescein-5-yl) = O=C1OC2(c3ccc(O)cc3Oc3cc(O)ccc32)c2ccc(N*)cc21; Tyr(3-I) = N[C@@H](Cc1ccc(O)c(I)c1)C(=O)O; Mca = COc1ccc2c(CC(=O)*)cc(=O)oc2c1; Hyp = O=C(O)[C@@H]1C[C@@H](O)CN1; Ile(3ξ) = CCC(C)[C@H](N)C(=O)O; CO = O=C([*:1])[*:2]; Ahx = NCCCCCC(=O)O; βAla = NCCC(=O)O

The text below walks through data of US20060148683A1, “Detection and treatment of intravascular lesions” (priority 2001, published 2006).

This experiment addresses T1, DD(E) fragment of fibrin (Homo sapiens, UniProt P02671+P02675+P02679, DEL433-453).
T1 construct: complex of the crosslinked D domains of adjacent fibrin monomers with the central E domain of fibrin
Nature of the experiment: Dissociation constant (Kd) of optical agent for DD(E) fragment of fibrin. The experiment is classed as binding. From the text:
Optical agents of the invention include an OD and a FBM covalently bound to each other, either directly or via a linker (OD-L-FBM). The FBM can be a small molecule or a peptide. As used herein, the term “peptide” refers to a chain of amino acids that is about 2 to about 75 amino acids in length (e.g., 3 to 50 amino acids). Affinity of a peptide for fibrin can be expressed in terms of its dissociation constant (Kd), which is the equilibrium constant for the dissociation reaction of the peptide from the DD(E) fragment of fibrin. The term “DD(E) fragment of fibrin” refers to a fibrin subcomponent generated by proteolytic degradation of fibrin with plasmin or trypsin. The DD(E) fragment is a complex of the crosslinked D domains of adjacent fibrin monomers with the central E domain of fibrin (See, for example, Spraggon et al., Nature 389:455462 (1997)). Since DD(E) is a product resulting from the proteolysis of fibrin, one of skill in the art will understand that there may be some slight heterogeneity in its composition. The DD(E) fragment can be biotinylated and immobilized via avidin to a solid substrate (e.g., a multi-well plate). Peptides can be incubated with the immobilized DD(E) fragment in a suitable buffer and binding detected using known methodology. Methods for determining the dissociation constant of the peptide for DD(E) are set forth in WO 01/09188.
As a result of the FBM having affinity for fibrin, the optical agent also has affinity for fibrin. The term “affinity” refers to the capacity of the optical agent to be taken up by, retained by, or bound to the fibrin in the lesion. The affinity of an optical agent can be expressed in terms of its Kd, which is the equilibrium constant for the dissociation reaction of the optical agent from fibrin, and determined as discussed above for the peptide. The dissociation constant of the optical agent for DD(E) can have a value less than about 10 μM (e.g., 0.1 μM to 10 μM). In one embodiment, the dissociation constant value is less than about 5 μM. In another embodiment, the dissociation constant value is less than about 1 μM. The dissociation constant also may have a value less than about 0.3 μM (e.g., 0.2 μM).
In the methods of the present invention, the optical agent forms a fibrin-optical agent complex at the site of the lesion. The ability of the optical agent to form a fibrin-optical agent complex may be measured by examining the optical agent's dissociation constant (Kd) for a DD(E) fragment of fibrin as discussed above.

Setting [1] is: 24° C., read-out: Kd (μM) vs. DD(E) @ 24° C.

T1 sequence (P02671 130-216 limits assumed, stated change not applied): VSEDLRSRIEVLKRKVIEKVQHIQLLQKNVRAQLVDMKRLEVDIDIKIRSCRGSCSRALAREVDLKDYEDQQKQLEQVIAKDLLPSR
T1 sequence (P02671 36-97 limits assumed, stated change not applied): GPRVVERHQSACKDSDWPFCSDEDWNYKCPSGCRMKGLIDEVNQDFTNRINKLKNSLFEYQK
T1 sequence (P02675 164-491 limits assumed, stated change not applied): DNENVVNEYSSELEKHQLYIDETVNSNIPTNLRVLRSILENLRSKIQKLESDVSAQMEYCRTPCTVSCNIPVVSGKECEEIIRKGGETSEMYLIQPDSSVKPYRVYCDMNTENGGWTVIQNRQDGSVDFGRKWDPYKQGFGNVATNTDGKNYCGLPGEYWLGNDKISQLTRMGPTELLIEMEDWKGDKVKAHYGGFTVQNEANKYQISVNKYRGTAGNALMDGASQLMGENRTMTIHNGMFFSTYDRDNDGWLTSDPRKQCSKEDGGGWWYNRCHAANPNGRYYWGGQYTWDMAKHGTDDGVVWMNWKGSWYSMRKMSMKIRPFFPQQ
T1 sequence (P02675 45-152 limits assumed, stated change not applied): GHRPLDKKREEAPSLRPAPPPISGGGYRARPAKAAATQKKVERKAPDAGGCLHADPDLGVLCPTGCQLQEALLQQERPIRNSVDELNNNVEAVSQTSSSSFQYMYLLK
T1 sequence (P02679 114-432 limits assumed, stated change not applied): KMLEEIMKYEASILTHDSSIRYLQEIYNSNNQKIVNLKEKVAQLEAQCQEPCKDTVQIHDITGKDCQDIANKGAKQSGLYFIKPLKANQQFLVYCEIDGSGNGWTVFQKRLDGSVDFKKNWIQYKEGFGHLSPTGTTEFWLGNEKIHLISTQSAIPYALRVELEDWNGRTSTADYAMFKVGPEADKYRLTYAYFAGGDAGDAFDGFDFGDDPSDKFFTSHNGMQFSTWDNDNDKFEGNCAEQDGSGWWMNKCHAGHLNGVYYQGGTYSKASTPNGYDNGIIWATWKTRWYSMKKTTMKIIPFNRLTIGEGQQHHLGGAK
T1 sequence (P02679 27-88 limits assumed, stated change not applied): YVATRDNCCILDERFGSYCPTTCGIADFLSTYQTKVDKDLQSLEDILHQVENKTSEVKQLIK

Take `CCC(C)[C@H](NC(=O)[C@H](Cc1c[nH]c2ccccc12)NC(=O)[C@@H]1CSSC[C@H](NC(=O)[C@H](CCC(=O)O)NC(=O)[C@H](Cc2c[nH]c3ccccc23)NC(=O)[C@@H](CCC(N)=O)NC(=O)CCCCCNC(=O)Cc2cc(=O)oc3cc(OC)ccc23)C(=O)N2CCC[C@H]2C(=O)N[C@@H](Cc2ccc(O)cc2)C(=O)NCC(=O)N[C@@H](CC(C)C)C(=O)N1)C(=O)N[C@@H](CCC(N)=O)C(N)=O` (some centres unmarked) [Structure XIII] ({Mca-Ahx}-[dQ]WECPYGLCW[Ile(3ξ)]Q-NH2; disulfide 4-9): the Kd (as a rule, the equilibrium constant for the complex coming apart) (read-out: Kd vs. DD(E)) came out at 0.2 µM.
Same read-out and setting: next, `COc1ccc2c(CC(=O)NCCCCCC(=O)N[C@@H](CC(C)C)C(=O)N3CCC[C@H]3C(=O)N[C@H]3CSSC[C@@H](C(=O)N[C@@H](CC(C)C)C(=O)N[C@@H](CC(=O)O)C(N)=O)NC(=O)[C@H](C(C)O)NC(=O)CNC(=O)[C@H](Cc4ccc(O)cc4)NC(=O)[C@H](Cc4ccc(O)cc4)NC(=O)[C@H](CC(=O)O)NC3=O)cc(=O)oc2c1` (some centres unmarked) [Structure XII]: 6.6 µM.
For the molecule `CC[C@H](C)[C@H](NC(=O)[C@H](Cc1c[nH]cn1)NC(=O)[C@@H]1CSSC[C@H](NC(=O)[C@H](Cc2c[nH]cn2)NC(=O)[C@H](Cc2ccccc2)NC(=O)CNC(=O)CCCCCNC(=O)Nc2ccc3c(c2)C(=O)OC32c3ccc(O)cc3Oc3cc(O)ccc32)C(=O)N2C[C@H](O)C[C@H]2C(=O)N[C@@H](Cc2ccc(O)c(I)c2)C(=O)N[C@@H](CC(=O)O)C(=O)N[C@@H](CC(C)C)C(=O)N1)C(=O)N[C@@H](CC(C)C)C(N)=O` [Structure III] ({NH(Fluorescein-5-yl)-CO-Ahx}-GFHC[Hyp][Tyr(3-I)]DLCHIL-NH2; disulfide 4-9), under setting [1], the Kd came to 0.1 µM.
As for `CC[C@H](C)[C@H](NC(=O)[C@H](Cc1c[nH]cn1)NC(=O)[C@@H]1CSSC[C@H](NC(=O)[C@H](Cc2c[nH]cn2)NC(=O)[C@H](Cc2ccccc2)NC(=O)CCNC(=O)Nc2ccc3c(c2)C(=O)OC32c3ccc(O)cc3Oc3cc(O)ccc32)C(=O)N2C[C@H](O)C[C@H]2C(=O)N[C@@H](Cc2ccc(O)c(I)c2)C(=O)N[C@@H](CC(=O)O)C(=O)N[C@@H](CC(C)C)C(=O)N1)C(=O)N[C@@H](CC(C)C)C(N)=O` [Structure I] ({NH(Fluorescein-5-yl)-CO-βAla}-FHC[Hyp][Tyr(3-I)]DLCHIL-NH2; disulfide 3-8), under setting [1], the Kd turned out to be 0.1 µM.
The same measure, in the same setting: next, `CC[C@H](C)[C@H](NC(=O)[C@H](Cc1c[nH]cn1)NC(=O)[C@@H]1CSSC[C@H](NC(=O)[C@H](Cc2c[nH]cn2)NC(=O)[C@H](Cc2ccccc2)NC(=O)CNC(=O)CNC(=O)[C@@H](N)CCCCNC(=O)Nc2ccc3c(c2)C(=O)OC32c3ccc(O)cc3Oc3cc(O)ccc32)C(=O)N2C[C@H](O)C[C@H]2C(=O)N[C@@H](Cc2ccc(O)c(I)c2)C(=O)N[C@@H](CC(=O)O)C(=O)N[C@@H](CC(C)C)C(=O)N1)C(=O)N[C@@H](CC(C)C)C(N)=O` [Structure IX] (H-K([CO-NH(Fluorescein-5-yl)])GGFHC[Hyp][Tyr(3-I)]DLCHIL-NH2; disulfide 6-11): 0.1 µM; `CC[C@H](C)[C@H](NC(=O)[C@H](Cc1c[nH]cn1)NC(=O)[C@@H]1CSSC[C@H](NC(=O)[C@H](Cc2c[nH]cn2)NC(=O)[C@H](Cc2ccccc2)NC(=O)CCCCCNC(=O)Nc2ccc3c(c2)C(=O)OC32c3ccc(O)cc3Oc3cc(O)ccc32)C(=O)N2C[C@H](O)C[C@H]2C(=O)N[C@@H](Cc2ccc(O)c(I)c2)C(=O)N[C@@H](CC(=O)O)C(=O)N[C@@H](CC(C)C)C(=O)N1)C(=O)N[C@@H](CC(C)C)C(N)=O` [Structure II] ({NH(Fluorescein-5-yl)-CO-Ahx}-FHC[Hyp][Tyr(3-I)]DLCHIL-NH2; disulfide 3-8): 0.1 µM; `CC[C@H](C)[C@H](NC(=O)[C@H](Cc1c[nH]cn1)NC(=O)[C@@H]1CSSC[C@H](NC(=O)[C@H](Cc2c[nH]cn2)NC(=O)[C@H](Cc2ccccc2)NC(=O)[C@H](Cc2c[nH]c3ccccc23)NC(=O)CCCCCNC(=O)Nc2ccc3c(c2)C(=O)OC32c3ccc(O)cc3Oc3cc(O)ccc32)C(=O)N2C[C@H](O)C[C@H]2C(=O)N[C@@H](Cc2ccc(O)c(I)c2)C(=O)N[C@@H](CC(=O)O)C(=O)N[C@@H](CC(C)C)C(=O)N1)C(=O)N[C@@H](CC(C)C)C(N)=O` [Structure IV] ({NH(Fluorescein-5-yl)-CO-Ahx}-WFHC[Hyp][Tyr(3-I)]DLCHIL-NH2; disulfide 4-9): 0.06 µM.
The same measure, in the same setting: next, `CC[C@H](C)[C@H](NC(=O)[C@H](Cc1c[nH]cn1)NC(=O)[C@@H]1CSSC[C@H](NC(=O)[C@H](Cc2c[nH]cn2)NC(=O)[C@H](Cc2ccccc2)NC(=O)CNC(=O)CNC(=O)CCCCCNC(=O)Nc2ccc3c(c2)C(=O)OC32c3ccc(O)cc3Oc3cc(O)ccc32)C(=O)N2C[C@H](O)C[C@H]2C(=O)N[C@@H](Cc2ccc(O)c(I)c2)C(=O)N[C@@H](CC(=O)O)C(=O)N[C@@H](CC(C)C)C(=O)N1)C(=O)N[C@@H](CC(C)C)C(N)=O` [Structure V] ({NH(Fluorescein-5-yl)-CO-Ahx}-GGFHC[Hyp][Tyr(3-I)]DLCHIL-NH2; disulfide 5-10): 0.09 µM.
